ChEMBL document CHEMBL1201862, “PubChem BioAssay data set” (2004)
Activity calls are given as the source filed them.

Assays:
[1] = tested on: H4; experiment: Luminescence Cell-Based Dose Response HTS to Identify Activators of 5'UTR Stem-Loop Driven Prion Protein mRNA Translation in H4 Neuroglioblastoma Cells. [Related pubchem assays: 1829 (Project Summary), 1814 (Primary HTS)]; assay type: functional; details: Homo sapiens
[2] = target: T1, Alkaline phosphatase, tissue-nonspecific isozyme (Homo sapiens, UniProt P05186)
T1 sequence (P05186 whole entry): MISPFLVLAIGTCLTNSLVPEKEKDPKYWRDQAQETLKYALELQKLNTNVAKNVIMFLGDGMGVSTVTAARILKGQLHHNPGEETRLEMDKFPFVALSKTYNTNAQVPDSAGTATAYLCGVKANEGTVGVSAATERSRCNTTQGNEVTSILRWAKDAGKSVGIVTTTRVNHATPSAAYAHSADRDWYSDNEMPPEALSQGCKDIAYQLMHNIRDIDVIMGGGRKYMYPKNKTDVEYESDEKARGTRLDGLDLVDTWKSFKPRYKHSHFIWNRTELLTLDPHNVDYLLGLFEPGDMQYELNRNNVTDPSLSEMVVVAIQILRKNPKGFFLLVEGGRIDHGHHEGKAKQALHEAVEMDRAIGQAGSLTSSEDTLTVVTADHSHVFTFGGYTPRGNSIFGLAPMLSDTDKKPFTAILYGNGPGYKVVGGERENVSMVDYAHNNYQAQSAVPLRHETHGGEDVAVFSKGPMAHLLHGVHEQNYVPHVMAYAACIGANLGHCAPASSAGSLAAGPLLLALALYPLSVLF

[3] = Luminescence Cell-Based Dose Response HTS to Identify Activators of Luciferase Translation or Activity in H4 […] Cells. [Related pubchem assays: 1829 (Project Summary), 1814 (Primary HTS)]; assay type: functional
[4] = target: Potassium voltage-gated channel subfamily KQT member 2 (Rattus norvegicus, UniProt O88943); experiment: potentiation of rat KCNQ2 current – cell-based, retigabine-insensitive compounds, dose response (AID 2654); assay type: functional
Potassium voltage-gated channel subfamily KQT member 2, sequence (O88943 whole entry): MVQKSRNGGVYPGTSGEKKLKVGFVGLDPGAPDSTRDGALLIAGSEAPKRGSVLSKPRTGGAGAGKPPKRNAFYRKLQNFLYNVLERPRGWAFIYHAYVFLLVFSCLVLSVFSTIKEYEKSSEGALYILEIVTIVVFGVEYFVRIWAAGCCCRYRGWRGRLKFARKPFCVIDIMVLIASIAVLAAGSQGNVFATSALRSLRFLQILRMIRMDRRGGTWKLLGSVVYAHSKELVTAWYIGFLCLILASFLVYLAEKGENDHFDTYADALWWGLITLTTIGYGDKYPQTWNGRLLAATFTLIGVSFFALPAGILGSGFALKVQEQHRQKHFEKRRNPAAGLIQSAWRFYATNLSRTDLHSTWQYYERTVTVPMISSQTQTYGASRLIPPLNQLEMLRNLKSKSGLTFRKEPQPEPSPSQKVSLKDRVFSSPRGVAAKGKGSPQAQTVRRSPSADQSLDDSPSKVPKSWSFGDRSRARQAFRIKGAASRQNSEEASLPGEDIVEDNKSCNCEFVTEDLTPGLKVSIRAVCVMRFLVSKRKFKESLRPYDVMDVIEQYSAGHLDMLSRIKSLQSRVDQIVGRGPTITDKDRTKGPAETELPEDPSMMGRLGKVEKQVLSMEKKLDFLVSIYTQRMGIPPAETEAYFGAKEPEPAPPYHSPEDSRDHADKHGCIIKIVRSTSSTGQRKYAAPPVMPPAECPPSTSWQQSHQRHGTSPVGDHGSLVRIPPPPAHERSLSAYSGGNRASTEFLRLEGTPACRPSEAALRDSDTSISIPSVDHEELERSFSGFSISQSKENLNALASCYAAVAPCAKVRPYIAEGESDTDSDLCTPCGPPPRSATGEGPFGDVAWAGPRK

[5] = target: Protein Rev (Human immunodeficiency virus type 1 group M subtype B (isolate WMJ22)(HIV-1), UniProt P05866); experiment: inhibitors of Rev protein–RRE RNA complex – biochemical, protein-RNA interaction, dose response (AID 842); parameters: species or system Human immunodeficiency virus 1
Protein Rev, sequence (P05866 whole entry): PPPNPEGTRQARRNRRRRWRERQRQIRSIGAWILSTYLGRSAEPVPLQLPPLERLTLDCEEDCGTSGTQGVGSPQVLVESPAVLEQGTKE

[6] = target: Mitochondrial peptide methionine sulfoxide reductase (Bos taurus, UniProt P54149); experiment: Absorbance-based biochemical high throughput dose response assay for activators of Methionine sulfoxide reductase A (MsrA).; assay type: functional
Mitochondrial peptide methionine sulfoxide reductase, sequence (P54149 whole entry): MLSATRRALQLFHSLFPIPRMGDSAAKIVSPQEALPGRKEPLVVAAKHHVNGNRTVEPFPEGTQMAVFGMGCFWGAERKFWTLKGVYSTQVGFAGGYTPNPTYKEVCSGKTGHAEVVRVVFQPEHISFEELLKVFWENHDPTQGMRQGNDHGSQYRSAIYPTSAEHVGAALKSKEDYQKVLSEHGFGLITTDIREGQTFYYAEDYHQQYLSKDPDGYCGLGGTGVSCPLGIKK

[7] = target: Beta-galactosidase (Escherichia coli, UniProt Q8VNN2); experiment: detection-enzyme interference by beta-gal modulators – biochemical, E. coli enzyme, set 3, artefact control for CCR6 antagonist project, dose response (AID 504712); assay type: functional
[8] = target: T2, Eukaryotic translation initiation factor 2-alpha kinase 3 (Homo sapiens, UniProt Q9NZJ5); experiment: Dose response cell-based high-throughput screening assay to measure PERK inhibition. [Related pubchem assays: 1416 ]; assay type: functional
T2 sequence (Q9NZJ5 whole entry): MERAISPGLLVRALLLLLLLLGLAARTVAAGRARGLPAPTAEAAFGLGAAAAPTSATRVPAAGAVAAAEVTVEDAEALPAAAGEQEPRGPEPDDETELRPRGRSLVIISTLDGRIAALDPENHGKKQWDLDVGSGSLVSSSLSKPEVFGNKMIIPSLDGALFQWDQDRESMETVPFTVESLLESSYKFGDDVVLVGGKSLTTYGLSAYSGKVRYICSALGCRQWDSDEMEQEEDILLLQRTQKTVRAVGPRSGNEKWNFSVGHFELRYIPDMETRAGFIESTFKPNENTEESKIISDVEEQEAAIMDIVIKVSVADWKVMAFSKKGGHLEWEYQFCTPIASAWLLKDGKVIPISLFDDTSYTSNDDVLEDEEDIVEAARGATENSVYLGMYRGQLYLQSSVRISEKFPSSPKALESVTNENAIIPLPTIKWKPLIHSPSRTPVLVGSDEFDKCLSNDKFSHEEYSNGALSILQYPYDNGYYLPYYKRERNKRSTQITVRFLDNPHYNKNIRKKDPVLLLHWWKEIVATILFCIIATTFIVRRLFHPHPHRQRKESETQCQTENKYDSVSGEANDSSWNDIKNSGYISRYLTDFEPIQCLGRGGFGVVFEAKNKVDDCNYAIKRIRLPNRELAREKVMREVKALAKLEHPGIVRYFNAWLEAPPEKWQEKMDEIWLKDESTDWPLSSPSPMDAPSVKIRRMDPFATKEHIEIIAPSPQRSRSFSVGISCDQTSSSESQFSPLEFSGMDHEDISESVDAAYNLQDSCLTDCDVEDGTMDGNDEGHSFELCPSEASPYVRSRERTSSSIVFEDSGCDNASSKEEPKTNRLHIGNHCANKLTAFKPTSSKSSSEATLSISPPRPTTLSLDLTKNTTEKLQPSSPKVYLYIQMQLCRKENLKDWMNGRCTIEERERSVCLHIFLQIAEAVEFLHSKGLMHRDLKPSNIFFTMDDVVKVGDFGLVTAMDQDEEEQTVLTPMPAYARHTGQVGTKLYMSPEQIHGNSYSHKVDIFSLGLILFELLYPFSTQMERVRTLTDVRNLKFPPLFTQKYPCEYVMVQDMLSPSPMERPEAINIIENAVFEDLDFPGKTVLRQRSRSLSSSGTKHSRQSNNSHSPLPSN

[9] = target: T2, Eukaryotic translation initiation factor 2-alpha kinase 3; experiment: Counterscreen assay for PERK inhibitors: Dose response cell-based high throughput screening assay to measure inhibition of PERK at 6 hours. [Related pubchem assays: 1522, 1416 ]; assay type: functional
[10] = target: Tumor necrosis factor (Homo sapiens, UniProt P01375); experiment: analog potency on TNFa NF-kB signaling – cell-based, revised, SAR follow-up (AID 2337); assay type: functional
Tumor necrosis factor, sequence (P01375 whole entry, the tested form may be a part): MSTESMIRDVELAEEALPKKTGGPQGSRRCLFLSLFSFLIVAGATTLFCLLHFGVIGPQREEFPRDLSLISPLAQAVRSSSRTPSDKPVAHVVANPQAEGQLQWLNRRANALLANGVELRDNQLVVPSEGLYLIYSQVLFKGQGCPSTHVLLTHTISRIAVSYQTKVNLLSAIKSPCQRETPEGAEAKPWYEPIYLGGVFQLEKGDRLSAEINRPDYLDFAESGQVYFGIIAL

[11] = target: Nucleotide-binding oligomerization domain-containing protein 1 (Homo sapiens, UniProt Q9Y239); experiment: blockers of NOD1 pathway activity – revised, SAR follow-up (AID 2333); assay type: functional
[12] = tested on: HEK293; experiment: cells; details: Homo sapiens;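 also: cells exposed to compound for 14 hours overnight before viability readout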
[13] = target: Nucleotide-binding oligomerization domain-containing protein 2 (Homo sapiens, UniProt Q9HC29); experiment: PubChem AID 2334; assay type: functional
[14] = target: T3, Mucolipin-3 (Homo sapiens, UniProt Q8TDD5); experiment: activators of mucolipin-3 and mucolipin-2 – cell-based, patch clamp, Fura-2 profiling panel, panel member TRPML3 Dose Response (AID 2116)
T3 sequence (Q8TDD5 whole entry): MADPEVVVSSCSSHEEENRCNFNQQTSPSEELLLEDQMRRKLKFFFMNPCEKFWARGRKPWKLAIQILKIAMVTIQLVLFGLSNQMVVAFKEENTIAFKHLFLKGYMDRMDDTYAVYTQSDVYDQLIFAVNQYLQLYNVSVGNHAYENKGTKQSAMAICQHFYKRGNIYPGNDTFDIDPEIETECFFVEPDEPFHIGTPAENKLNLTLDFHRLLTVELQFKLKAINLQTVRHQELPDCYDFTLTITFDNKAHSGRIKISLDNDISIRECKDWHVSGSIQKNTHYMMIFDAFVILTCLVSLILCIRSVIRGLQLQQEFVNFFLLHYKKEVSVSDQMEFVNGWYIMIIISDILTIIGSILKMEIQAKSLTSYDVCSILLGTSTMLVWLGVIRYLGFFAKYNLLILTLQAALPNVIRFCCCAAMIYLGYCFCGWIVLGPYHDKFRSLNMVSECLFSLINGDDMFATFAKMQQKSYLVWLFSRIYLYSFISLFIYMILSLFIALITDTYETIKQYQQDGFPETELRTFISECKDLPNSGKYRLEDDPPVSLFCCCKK

[15] = target: T4, Ion channel NompC (Danio rerio, UniProt Q7T1G6); experiment: activators of mucolipin-3 and mucolipin-2 – cell-based, […], Fura-2 profiling panel, panel member TRPN1 Dose Response (AID 2116)
T4 sequence (Q7T1G6 whole entry): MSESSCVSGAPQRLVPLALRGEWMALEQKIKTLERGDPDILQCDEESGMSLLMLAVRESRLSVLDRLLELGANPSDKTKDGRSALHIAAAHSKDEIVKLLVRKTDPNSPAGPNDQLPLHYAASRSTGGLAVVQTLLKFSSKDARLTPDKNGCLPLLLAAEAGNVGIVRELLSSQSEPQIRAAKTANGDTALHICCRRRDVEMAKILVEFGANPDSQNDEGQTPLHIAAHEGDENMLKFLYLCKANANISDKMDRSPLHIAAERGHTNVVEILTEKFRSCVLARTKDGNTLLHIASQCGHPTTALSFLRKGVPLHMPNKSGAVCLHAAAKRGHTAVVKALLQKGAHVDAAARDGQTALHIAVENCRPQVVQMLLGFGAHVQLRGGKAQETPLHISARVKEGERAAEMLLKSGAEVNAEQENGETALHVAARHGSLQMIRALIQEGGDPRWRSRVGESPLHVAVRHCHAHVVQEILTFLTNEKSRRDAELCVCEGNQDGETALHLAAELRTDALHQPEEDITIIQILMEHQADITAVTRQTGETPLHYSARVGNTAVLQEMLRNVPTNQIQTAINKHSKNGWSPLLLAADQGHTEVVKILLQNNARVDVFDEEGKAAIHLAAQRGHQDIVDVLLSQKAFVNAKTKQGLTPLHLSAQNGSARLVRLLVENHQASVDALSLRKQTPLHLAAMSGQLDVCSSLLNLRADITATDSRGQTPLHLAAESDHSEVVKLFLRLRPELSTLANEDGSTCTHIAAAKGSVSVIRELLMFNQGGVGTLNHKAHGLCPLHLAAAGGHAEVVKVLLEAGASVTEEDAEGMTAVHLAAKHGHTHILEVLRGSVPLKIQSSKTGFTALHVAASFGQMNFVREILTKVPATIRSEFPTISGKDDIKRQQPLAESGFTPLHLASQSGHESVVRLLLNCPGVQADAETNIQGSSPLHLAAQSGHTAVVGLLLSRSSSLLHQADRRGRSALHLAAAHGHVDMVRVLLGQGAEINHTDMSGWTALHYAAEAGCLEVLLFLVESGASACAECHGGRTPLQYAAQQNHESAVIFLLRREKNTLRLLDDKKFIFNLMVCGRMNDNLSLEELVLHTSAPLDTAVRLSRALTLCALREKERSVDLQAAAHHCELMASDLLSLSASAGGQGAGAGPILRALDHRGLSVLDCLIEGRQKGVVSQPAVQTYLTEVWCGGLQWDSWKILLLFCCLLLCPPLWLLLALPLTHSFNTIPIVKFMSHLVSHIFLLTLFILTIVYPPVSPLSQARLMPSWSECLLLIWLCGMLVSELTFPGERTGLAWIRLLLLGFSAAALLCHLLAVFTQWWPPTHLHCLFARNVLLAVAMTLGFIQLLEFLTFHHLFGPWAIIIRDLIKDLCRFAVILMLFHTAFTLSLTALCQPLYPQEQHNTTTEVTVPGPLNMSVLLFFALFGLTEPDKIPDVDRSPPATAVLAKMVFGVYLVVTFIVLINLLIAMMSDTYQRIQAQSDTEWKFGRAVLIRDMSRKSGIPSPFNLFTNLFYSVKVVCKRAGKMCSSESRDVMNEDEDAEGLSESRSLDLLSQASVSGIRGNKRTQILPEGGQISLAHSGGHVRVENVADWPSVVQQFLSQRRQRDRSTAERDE

[16] = target: T4, Ion channel NompC; experiment: Fluorescence counterscreen assay for TRPML3 agonists: dose response cell-based high-throughput screening assay to identify agonists of the transient receptor potential channel N1 (TRPN1). [Related pubchem assays: 1526, 1424, 1448 ]; assay type: functional
[17] = target: T3, Mucolipin-3; experiment: Dose response cell-based high-throughput screening assay for agonists of the transient receptor potential channel ML3 (TRPML3). [Related pubchem assays: 1526, 1424, 1448 ]; assay type: functional
[18] = target: Melanin-concentrating hormone receptor 1 (Homo sapiens, UniProt Q99705); experiment: Late-stage fluorescence-based counterscreen for antagonists of the G-protein coupled receptor 7 (GPR7): cell-based dose response assay to identify antagonists of the melanin-concentrating hormone receptor 1 (MCHR1). [Related pubchem assays (depositor defined):AID1861, AID1880, AID1952, AID2148, AID2251, AID2257, AID485339]; assay type: functional;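 also: stimulated with 30 nM MCH peptide agonist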
Melanin-concentrating hormone receptor 1, sequence (Q99705 whole entry): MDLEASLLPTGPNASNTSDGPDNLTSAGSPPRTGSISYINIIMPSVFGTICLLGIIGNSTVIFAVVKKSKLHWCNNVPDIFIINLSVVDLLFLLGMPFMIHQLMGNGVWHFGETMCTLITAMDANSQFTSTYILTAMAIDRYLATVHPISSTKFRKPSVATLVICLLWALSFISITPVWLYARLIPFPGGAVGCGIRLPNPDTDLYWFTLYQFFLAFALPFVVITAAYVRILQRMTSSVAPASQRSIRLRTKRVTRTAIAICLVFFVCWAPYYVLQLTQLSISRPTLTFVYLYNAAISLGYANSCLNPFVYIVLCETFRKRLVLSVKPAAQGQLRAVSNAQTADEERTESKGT

Cc1ccc(-c2cc(-c3ccccc3[N+](=O)[O-])[nH]n2)c(O)c1
EC50 [1]: > 120 µM (not active)
EC50 [2]: 80.2 µM (not active)
EC50 [3]: 2.35 µM (inconclusive)

S=C(Nc1ccc(Nc2ccccc2)cc1)Nc1cccnc1
EC50 [4]: 11 µM (active)

COc1cccc(Nc2nc(N)nc(-c3oc4ccccc4c3C)n2)c1
IC50 [5]: > 79.4 µM (not active)

CS(=O)(=O)c1cc([N+](=O)[O-])c(Sc2nc3ccccc3[nH]2)c([N+](=O)[O-])c1
EC50 [6]: > 104 µM (inactive)
IC50 [7]: > 66.6 µM (inactive)

Cn1nccc1NC(=O)Nc1ccc(OC(F)(F)F)cc1
EC50 [8]: > 55.7 µM (not active)
EC50 [9]: > 55.7 µM (not active)

N#Cc1ccc(C(=O)Nc2nc3ccccc3n2Cc2ccc(Cl)cc2)cc1
IC50 [10]: > 20 µM (inactive)
IC50 [11]: > 20 µM (inactive)
IC50 [12]: > 20 µM (inactive)
IC50 [13]: > 20 µM (inactive)

O=S(=O)(Nc1ccccc1N1CCCCC1)c1ccc(Cl)s1
EC50 [14]: 0.62 µM (active)
EC50 [15]: > 29.9 µM (inactive)
EC50 [16]: > 29.9 µM (not active)
EC50 [17]: 0.872 µM (active)

COc1ccc(Oc2c(Cl)cnn(-c3ccc(C(C)C)c(C)c3)c2=O)cc1
IC50 [18]: 2 µM (active)
